Results taken from patent US20230085307A1, “PYRIDAZINONE COMPOUND AND HERBICIDE” (NISSAN CHEMICAL CORPORATION, priority 2019, published 2023).

What follows are compounds tested on southern crabgrass (assay: Test Example 5: herbicidal effect by foliage application, plastic box (Table 20, symbol F)). Conditions: foliage application, 320 g/ha, three weeks after application.
Format: in vivo, southern crabgrass (Digitaria ciliaris)
Method in brief: (§1)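 Plants were sown into sterilized diluvial soil under about 1.5 cm cover and kept in a greenhouse at 25° C. to 30° C. Fourteen days on, foliage received an even spray of the diluted emulsion. Herbicidal or crop effect was judged three weeks afterwards.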

| SMILES | herbicidal effect on southern crabgrass (F) |
| --- | --- |
| COc1cc2sc(-c3ccc(F)cc3OC)c(-c3c(O)c(C)nn(C)c3=O)c2cc1Cl [5-075] | 3 (Herbicidal rate of 40% or more and less than 70%) |
| Cc1cc2sc(-c3ccc(F)cc3)c(-c3c(O)c(C)nn(C)c3=O)c2cc1C [5-088] | 0 (Herbicidal rate of 5% or less (almost no effect)) |
| COc1ccc(-c2sc3cc(C)c(C)cc3c2-c2c(O)c(C)nn(C)c2=O)cc1 [5-092] | 0 (Herbicidal rate of 5% or less (almost no effect)) |

The compounds below were run on barnyard grass (assay: Test Example 3: herbicidal effect by foliage application, Wagner pot (Table 18, symbol H)). Conditions: 320 g/ha.
Format: in vivo, barnyard grass (Echinochloa crus-galli)
Method in brief: (§2)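 Plants were sown in alluvial soil held under 0.1–0.5 cm standing water and grown 14 days in a greenhouse at 25–30 °C. An emulsifiable formulation, water-diluted to the set dose, was then sprayed onto the foliage, and effects were scored three weeks later using previously defined criteria.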

| SMILES | herbicidal effect on barnyard grass (H) |
| --- | --- |
| COc1cc2sc(-c3ccc(F)cc3OC)c(-c3c(O)c(C)nn(C)c3=O)c2cc1Cl [5-075] | 5 (Herbicidal rate of 90% or more (almost completely withered)) |
| Cc1cc2sc(-c3ccc(F)cc3)c(-c3c(O)c(C)nn(C)c3=O)c2cc1C [5-088] | 3 (Herbicidal rate of 40% or more and less than 70%) |
| COc1ccc(-c2sc3cc(C)c(C)cc3c2-c2c(O)c(C)nn(C)c2=O)cc1 [5-092] | 2 (Herbicidal rate of 20% or more and less than 40%) |

What follows are compounds tested on persian speedwell (assay: Test Example 5: herbicidal effect by foliage application, plastic box (Table 20, symbol R)). Conditions: foliage application, 320 g/ha, three weeks after application.
Format: in vivo, Persian speedwell (Veronica persica)
Method in brief: as §1

| SMILES | herbicidal effect on persian speedwell (R) |
| --- | --- |
| COc1cc2sc(-c3ccc(F)cc3OC)c(-c3c(O)c(C)nn(C)c3=O)c2cc1Cl [5-075] | 4 (Herbicidal rate of 70% or more and less than 90%) |
| Cc1cc2sc(-c3ccc(F)cc3)c(-c3c(O)c(C)nn(C)c3=O)c2cc1C [5-088] | 4 (Herbicidal rate of 70% or more and less than 90%) |
| COc1ccc(-c2sc3cc(C)c(C)cc3c2-c2c(O)c(C)nn(C)c2=O)cc1 [5-092] | 4 (Herbicidal rate of 70% or more and less than 90%) |

What follows are compounds tested on rice flat sedge (assay: Test Example 3: herbicidal effect by foliage application, Wagner pot (Table 18, symbol E)). Conditions: 320 g/ha.
Format: in vivo, rice flat sedge (Cyperus iria)
Method in brief: as §2

| SMILES | herbicidal effect on rice flat sedge (E) |
| --- | --- |
| COc1cc2sc(-c3ccc(F)cc3OC)c(-c3c(O)c(C)nn(C)c3=O)c2cc1Cl [5-075] | 3 (Herbicidal rate of 40% or more and less than 70%) |
| Cc1cc2sc(-c3ccc(F)cc3)c(-c3c(O)c(C)nn(C)c3=O)c2cc1C [5-088] | 2 (Herbicidal rate of 20% or more and less than 40%) |
| COc1ccc(-c2sc3cc(C)c(C)cc3c2-c2c(O)c(C)nn(C)c2=O)cc1 [5-092] | 0 (Herbicidal rate of 5% or less (almost no effect)) |

What follows are compounds tested on windgrass (assay: Test Example 5: herbicidal effect by foliage application, plastic box (Table 20, symbol L)). Conditions: foliage application, 320 g/ha, three weeks after application.
Format: in vivo, windgrass (Apera spica-venti)
Excerpt: (§3) [Test Example 5] Herbicidal Effect Test by Foliage Application
(§4) Sterilized diluvial soil was placed in a plastic box having a length of 21 cm, a width of 13 cm, and a depth of 7 cm. The seeds of each of southern crabgrass, green foxtail, barnyard grass, wild oat, blackgrass, Italian ryegrass, windgrass, velvetleaf, redroot pigweed, lambsquarters, chickweed, false cleavers, persian speedwell, corn, soybean, rice, wheat, beet, and rapeseed were sowed in a spot-like manner and covered with the soil having a thickness of about 1.5 cm. Thereafter, the plants were grown in a greenhouse at 25° C. to 30° C. After 14-day growth of the plants, the emulsion agent of the compound of the present invention prepared according to Formulation Example 2 was diluted with water so as to achieve a predetermined herbicide amount, and the diluted emulsion agent was uniformly applied to a foliage part with a small-sized spray. Three weeks after the herbicide application, the effect of the herbicide on each plant was evaluated according to the criteria of Test Example 1.

| SMILES | herbicidal effect on windgrass (L) |
| --- | --- |
| COc1cc2sc(-c3ccc(F)cc3OC)c(-c3c(O)c(C)nn(C)c3=O)c2cc1Cl [5-075] | 3 (Herbicidal rate of 40% or more and less than 70%) |
| Cc1cc2sc(-c3ccc(F)cc3)c(-c3c(O)c(C)nn(C)c3=O)c2cc1C [5-088] | 0 (Herbicidal rate of 5% or less (almost no effect)) |
| COc1ccc(-c2sc3cc(C)c(C)cc3c2-c2c(O)c(C)nn(C)c2=O)cc1 [5-092] | 0 (Herbicidal rate of 5% or less (almost no effect)) |

What follows are compounds tested on barnyard grass (assay: Test Example 5: herbicidal effect by foliage application, plastic box (Table 20, symbol H)). Conditions: foliage application, 320 g/ha, three weeks after application.
Format: in vivo, barnyard grass (Echinochloa crus-galli)
Method in brief: as §1

| SMILES | herbicidal effect on barnyard grass (H) |
| --- | --- |
| COc1cc2sc(-c3ccc(F)cc3OC)c(-c3c(O)c(C)nn(C)c3=O)c2cc1Cl [5-075] | 4 (Herbicidal rate of 70% or more and less than 90%) |
| Cc1cc2sc(-c3ccc(F)cc3)c(-c3c(O)c(C)nn(C)c3=O)c2cc1C [5-088] | 0 (Herbicidal rate of 5% or less (almost no effect)) |
| COc1ccc(-c2sc3cc(C)c(C)cc3c2-c2c(O)c(C)nn(C)c2=O)cc1 [5-092] | 0 (Herbicidal rate of 5% or less (almost no effect)) |

The compounds below were run on green foxtail (assay: Test Example 5: herbicidal effect by foliage application, plastic box (Table 20, symbol G)). Conditions: foliage application, 320 g/ha, three weeks after application.
Format: in vivo, green foxtail (Setaria viridis)
Excerpt: as §3, §4

| SMILES | herbicidal effect on green foxtail (G) |
| --- | --- |
| COc1cc2sc(-c3ccc(F)cc3OC)c(-c3c(O)c(C)nn(C)c3=O)c2cc1Cl [5-075] | 5 (Herbicidal rate of 90% or more (almost completely withered)) |
| Cc1cc2sc(-c3ccc(F)cc3)c(-c3c(O)c(C)nn(C)c3=O)c2cc1C [5-088] | 0 (Herbicidal rate of 5% or less (almost no effect)) |
| COc1ccc(-c2sc3cc(C)c(C)cc3c2-c2c(O)c(C)nn(C)c2=O)cc1 [5-092] | 0 (Herbicidal rate of 5% or less (almost no effect)) |

Each compound was assayed on blackgrass (assay: Test Example 5: herbicidal effect by foliage application, plastic box (Table 20, symbol J)). Conditions: foliage application, 320 g/ha, three weeks after application.
Format: in vivo, blackgrass (Alopecurus myosuroides)
Method in brief: as §1

| SMILES | herbicidal effect on blackgrass (J) |
| --- | --- |
| COc1cc2sc(-c3ccc(F)cc3OC)c(-c3c(O)c(C)nn(C)c3=O)c2cc1Cl [5-075] | 3 (Herbicidal rate of 40% or more and less than 70%) |
| Cc1cc2sc(-c3ccc(F)cc3)c(-c3c(O)c(C)nn(C)c3=O)c2cc1C [5-088] | 0 (Herbicidal rate of 5% or less (almost no effect)) |
| COc1ccc(-c2sc3cc(C)c(C)cc3c2-c2c(O)c(C)nn(C)c2=O)cc1 [5-092] | 0 (Herbicidal rate of 5% or less (almost no effect)) |

The compounds below were run on wild oat (assay: Test Example 5: herbicidal effect by foliage application, plastic box (Table 20, symbol I)). Conditions: foliage application, 320 g/ha, three weeks after application.
Format: in vivo, wild oat (Avena fatua)
Excerpt: as §3, §4

| SMILES | herbicidal effect on wild oat (I) |
| --- | --- |
| COc1cc2sc(-c3ccc(F)cc3OC)c(-c3c(O)c(C)nn(C)c3=O)c2cc1Cl [5-075] | 0 (Herbicidal rate of 5% or less (almost no effect)) |
| Cc1cc2sc(-c3ccc(F)cc3)c(-c3c(O)c(C)nn(C)c3=O)c2cc1C [5-088] | 0 (Herbicidal rate of 5% or less (almost no effect)) |
| COc1ccc(-c2sc3cc(C)c(C)cc3c2-c2c(O)c(C)nn(C)c2=O)cc1 [5-092] | 0 (Herbicidal rate of 5% or less (almost no effect)) |

What follows are compounds tested on velvetleaf (assay: Test Example 5: herbicidal effect by foliage application, plastic box (Table 20, symbol M)). Conditions: foliage application, 320 g/ha, three weeks after application.
Format: in vivo, velvetleaf (Abutilon theophrasti)
Method in brief: as §1

| SMILES | herbicidal effect on velvetleaf (M) |
| --- | --- |
| COc1cc2sc(-c3ccc(F)cc3OC)c(-c3c(O)c(C)nn(C)c3=O)c2cc1Cl [5-075] | 0 (Herbicidal rate of 5% or less (almost no effect)) |
| Cc1cc2sc(-c3ccc(F)cc3)c(-c3c(O)c(C)nn(C)c3=O)c2cc1C [5-088] | 2 (Herbicidal rate of 20% or more and less than 40%) |
| COc1ccc(-c2sc3cc(C)c(C)cc3c2-c2c(O)c(C)nn(C)c2=O)cc1 [5-092] | 0 (Herbicidal rate of 5% or less (almost no effect)) |

Each compound was assayed on Italian ryegrass (assay: Test Example 5: herbicidal effect by foliage application, plastic box (Table 20, symbol K)). Conditions: foliage application, 320 g/ha, three weeks after application.
Format: in vivo, Italian ryegrass (Lolium multiflorum)
Method in brief: as §1

| SMILES | herbicidal effect on Italian ryegrass (K) |
| --- | --- |
| COc1cc2sc(-c3ccc(F)cc3OC)c(-c3c(O)c(C)nn(C)c3=O)c2cc1Cl [5-075] | 0 (Herbicidal rate of 5% or less (almost no effect)) |
| Cc1cc2sc(-c3ccc(F)cc3)c(-c3c(O)c(C)nn(C)c3=O)c2cc1C [5-088] | 1 (Herbicidal rate of 5% or more and less than 20%) |
| COc1ccc(-c2sc3cc(C)c(C)cc3c2-c2c(O)c(C)nn(C)c2=O)cc1 [5-092] | 0 (Herbicidal rate of 5% or less (almost no effect)) |

The compounds below were run on Chinese sprangletop (assay: Test Example 3: herbicidal effect by foliage application, Wagner pot (Table 18, symbol D)). Conditions: 320 g/ha.
Format: in vivo, chinese sprangletop (Leptochloa chinensis)
Method: [Test Example 3] Herbicidal Effect Test by Foliage Application After alluvial soil was placed into 1/10000 are of Wagner pot, water was poured and mixed to form a submerged condition having a water depth of 0.1 cm to 0.5 cm. Seeds of barnyard grass, Chinese sprangletop, rice flat sedge, and rice were sowed and the pot was placed in a greenhouse at 25° C. to 30° C. for growth of the plants. After 14-day growth of the plants, the emulsion agent of the compound of the present invention prepared according to Formulation Example 2 was diluted with water so as to achieve a predetermined herbicide amount, and the diluted emulsion agent was uniformly applied to a foliage part with a small-sized spray. Three weeks after the herbicide application, the effect of the herbicide on each plant was evaluated according to the criteria of Test Example 1.

| SMILES | herbicidal effect on Chinese sprangletop (D) |
| --- | --- |
| COc1cc2sc(-c3ccc(F)cc3OC)c(-c3c(O)c(C)nn(C)c3=O)c2cc1Cl [5-075] | 3 (Herbicidal rate of 40% or more and less than 70%) |
| Cc1cc2sc(-c3ccc(F)cc3)c(-c3c(O)c(C)nn(C)c3=O)c2cc1C [5-088] | 2 (Herbicidal rate of 20% or more and less than 40%) |
| COc1ccc(-c2sc3cc(C)c(C)cc3c2-c2c(O)c(C)nn(C)c2=O)cc1 [5-092] | 0 (Herbicidal rate of 5% or less (almost no effect)) |

These compounds were tested on lambsquarters (assay: Test Example 5: herbicidal effect by foliage application, plastic box (Table 20, symbol O)). Conditions: foliage application, 320 g/ha, three weeks after application.
Format: in vivo, lambsquarters (Chenopodium album)
Excerpt: as §3, §4

| SMILES | herbicidal effect on lambsquarters (O) |
| --- | --- |
| COc1cc2sc(-c3ccc(F)cc3OC)c(-c3c(O)c(C)nn(C)c3=O)c2cc1Cl [5-075] | 4 (Herbicidal rate of 70% or more and less than 90%) |
| Cc1cc2sc(-c3ccc(F)cc3)c(-c3c(O)c(C)nn(C)c3=O)c2cc1C [5-088] | 0 (Herbicidal rate of 5% or less (almost no effect)) |
| COc1ccc(-c2sc3cc(C)c(C)cc3c2-c2c(O)c(C)nn(C)c2=O)cc1 [5-092] | 0 (Herbicidal rate of 5% or less (almost no effect)) |
